Experiments:
hTRPC6-YFP = tested on: T1, hTRPC6-YFP; assay: Fluo-4 Ca2+ influx assay in HEK293 cells stably expressing TRPC6; type: cell-based, human; conditions: for effect on TRPC6: fluo-4 concentration response analysis
T1 construct: expressed in transfected cells

parental HEK293 cells = assay: [Ca2+]i response in un-transfected parental HEK293 cells; type: cell-based, human
Protocol: All fluorometric Ca^2+ assays were done in (4-(2-hydroxyethyl)-1-piperazineethanesulfonic acid) (HEPES)-buffered saline (HBS), containing 132 mM NaCl, 6 mM KCl, 1 mM MgCl2, 1 mM CaCl2, 5.5 mM D-glucose, 10 mM HEPES, and 0.035% bovine serum albumin (BSA) adjusted to pH 7.4 with NaOH. For measurements in Ca^2+-free bath solutions, a modified HBS without CaCl2 was supplemented with 200 µM ethylene glycol-bis(β-aminoethyl ether)-N,N,N′,N′-tetraacetic acid (EGTA).
The primary compound screen and the generation of concentration response curves in HEK293 cells or in PC12 cells were performed by using a custom-made fluorescence plate imager built into a robotic liquid handling station equipped with a 96-tip multichannel head (Freedom Evo 150, Tecan, Männedorf, Switzerland) as described previously. To this end, trypsinized cell suspensions were loaded with 4 µM fluo-4/AM (Invitrogen, Thermo Fisher Scientific, Waltham, MA, U.S.A.) in cell culture medium for 30 min at 37 °C. After brief centrifugation, cells were resuspended in HBS and dispensed into black pigmented, clear-bottom 384-well plates (Greiner µClear, Frickenhausen, Germany). Plates were mounted on the imager, and fluorescence signals were recorded with a cooled Zyla 5.5 camera (Andor, Belfast, UK) through a 515 nm long pass filter. The image acquisition was controlled by the µManager software (http://micro-manager.org), and excitation with a LED array (470 nm) was synchronized by the camera trigger output. After baseline recording for about 60 s, the compound libraries or serial dilutions of activators or inhibitors were added to the cells by the liquid handling device. When inhibitory potencies were evaluated, a second pipetting step with the respective reference agonist was performed. Fluorescence intensities were calculated from image stacks for each well with ImageJ (National Institutes of Health, Bethesda, MD, U.S.A.), corrected for background signals, and normalized to the initial intensities (F/F0). […]

mouse TRPC3 ortholog = tested on: T2, mouse TRPC3 ortholog; assay: Single-cell [Ca2+]i analysis, fura-2-loaded HEK293 cells transiently overexpressing mouse TRPC3; type: cell-based; conditions: 50 µM, mean and S.D., n = 215 single cells; basal 311 ± 134 nM
T2 construct: expressed in transfected cells; host or cells: HEK293, transient
Protocol: (§1) The microfluorometric single-cell [Ca^2+]i analysis was performed on an inverted epifluorescence microscope (Carl Zeiss, Jena, Germany) and calibrated as described. Cells were grown on 25 mm coverslips and loaded with 4 µM fura-2/AM (AAT Bioquest, Sunnyvale, CA, U.S.A.) in HBS containing 0.2% BSA for 30 min at 37 °C. After gently rinsing the coverslips with HBS, coverslips were mounted in a bath chamber and superfused with HBS containing 0.035% BSA.

[1] = tested on: human protein kinase C (PKC) ε; assay: Plasma membrane translocation of PKCε-YFP fusion protein; type: cell-based; conditions: 50 µM
[2] = tested on: PC12 cells (native TRPC3 channel complexes); assay: [Ca2+]i analysis in fura-2-loaded PC12 cells; type: cell-based, rat
Protocol: Human embryonic kidney 293 (HEK293) cells were stably transfected with expression plasmids that encode hTRPC3-YFP, hTRPC6-YFP, hTRPC7-YFP, mTRPC4ß-YFP, rTRPV1-CFP, rTRPV2-YFP, rTRPV3-YFP, mTRPV4-YFP, or hTRPM2 as previously described. Cell lines were cultured in Earle’s minimum essential medium (MEM; Sigma, Munich, Germany), supplemented with 10% fetal calf serum (Gibco Thermo Fisher Scientific, Darmstadt, Germany), 2 mM L-glutamine, and required concentrations of geneticin in a range of 0.4–1 mg/mL. A HEK293mTRPC5-YFP cell line was maintained and induced as described before. The HEK293mTRPM3α2 cells (expressing the Ca^2+-permeable main variant of mouse TRPM3) were kindly provided by Johannes Oberwinkler (Marburg, Germany), the HEK293hTRPA1 cells that constitutively overexpress the human TRPA1 were from Dr. Natalie Tigue and Dr. Steve Moore (GlaxoSmithKline, Harlow, UK). With the exception of mTRPC5-YFP, all cell lines constitutively overexpress the respective TRP channel under the control of a cytomegalovirus (CMV) promoter. A HEK cell line stably expressing the human protein kinase C (PKC) ε C-terminally tagged with YFP [13] was generated and maintained in the same medium as HEKTRPC3-YFP cells. PC12 cells were cultured in RPMI-1640 (Sigma, Munich, Germany) with 10% fetal calf serum, 2 mM L-glutamine, 100 U/mL penicillin, and 0.1 mg/mL streptomycin. For electrophysiological and single cell [Ca^2+]i imaging experiments, PC12 cells were plated onto 25 mm poly-L-lysine-coated glass coverslips and measured 24–48 h after seeding. All cells were maintained at 37 °C in a 5% CO2-aerated, humidified atmosphere.
as §1
Figure 7 Expression of TRPC3 and functional responses to TRPC activators in PC12 rat pheochromocytoma cells. (A) Immunofluorescence analysis of TRPC3 (green channel) and tyrosine hydroxylase (TH; red channel) expression in PC12 cells. Nuclei were counterstained with DAPI (blue channel). Bars: 20 µm scale. Time course of the [Ca^2+]i (B) and averaged basal and peak [Ca^2+]i values (C) were recorded by microfluorometric analysis in fura-2-loaded PC12 cells grown on glass coverslips. […] Data represent averages (B) or means and S.D. (C) of 6–12 imaging experiments for each compound. Significant increases compared to the respective basal values are indicated (#: p < 0.05; Student´s t-test for paired data).

C[C@@H]1CC[C@H]2[C@@H](C)C(=O)O[C@@H]3O[C@@]4(C)CC[C@@H]1[C@]32OO4 [artemisinin]
effect on TRPC6 (hTRPC6-YFP): marked preference to activate TRPC3, but not the closely related TRPC6 channel | effect on TRPC6 (hTRPC6-YFP; listed as Artemisinin): rather inhibits TRPC6 | signal in counterscreen with TRPC6-expressing cells (hTRPC6-YFP; primary screen, 20 µM): no signals | response of un-transfected parental HEK293 cells (parental HEK293 cells; concentrations up to 50 µM): no response | [Ca2+]i signals in parental HEK293 cells (parental HEK293 cells; single-cell analysis, followed by carbachol): does not induce [Ca^2+]i signals | [Ca2+]i reached after stimulation (mouse TRPC3 ortholog): 1140 ± 635 nM | plasma membrane translocation of PKCε-YFP [1]: did not induce a discernible plasma membrane translocation | [Ca2+]i in fura 2-loaded PC12 cells ([2]; artemisinin 50 or 100 µM, 6–12 experiments for each compound): significant increases in [Ca^2+]i | response to artemisinin after neuronal growth factor treatment of PC12 cells ([2]; neuronal growth factor treatment): lower response

— publication PMC7016953 (Cells, 2020)
